The results in this text go back to US8399452B2, “Dibenzo[b,f][1,4]oxazepin-11-yl-N-hydroxybenzamides as HDAC inhibitors” (Methylgene Inc., priority 2006, dated 2013).

For one test, the target named is histone deacetylase (HDAC Enzyme). Briefly: Inhibition of Histone Deacetylase Enzymatic Activity (Boc-Lys(Ac)-AMC, Fluor-de-Lys developer). Type of test: biochemical. The note with it: Table 9; read-out: HDAC Inhibition (IC50 μM) HDAC Enzyme. Here is the method:
The following protocol is used to assay the compounds of the invention.
The mixture is pre-incubated for 5 minutes at room temperature. The reaction is started by bringing the temperature to 37° C. and adding 16 μl substrate. Total reaction volume is 50 μl.
In the Tables 8, 9 and 10, A≦[…]<B≦0.1 μM; 0.1 μM<C≦1 μM; and 1 μM<D≦10 μM.
Usually IC50 stands for the concentration needed to halve the response being measured. As to `O=C(NO)c1cnc(N2C[C@@H]3C[C@H]2CN3C(=O)OCc2cccnc2)nc1` [(1S,4S)-pyridin-3-ylmethyl 5-(5-(hydroxycarbamoyl)pyrimidin-2-yl)-2,5-diazabicyclo[2.2.1]heptane-2-carboxylate], the IC50 is < 0.05 µM.
With `CC(C)(C)OC(=O)N1C[C@@H]2C[C@H]1CN2c1ncc(C(=O)NO)cn1` [(1S,4S)-tert-butyl 5-(5-(hydroxycarbamoyl)pyrimidin-2-yl)-2,5-diazabicyclo[2.2.1]heptane-2-carboxylate], the IC50 was < 0.05 µM.
Still for that read-out and setting: for `O=C(NO)c1cnc(N2C[C@@H]3C[C@H]2CN3C(=O)OC2CCOCC2)nc1` [(1S,4S)-tetrahydro-2H-pyran-4-yl 5-(5-(hydroxycarbamoyl)pyrimidin-2-yl)-2,5-diazabicyclo[2.2.1]heptane-2-carboxylate] the value was < 0.05 µM.

Staying with this test, now noted: Table 10; read-out: HDAC Inhibition (IC50 μM) HDAC Enzyme.
In the case of `O=C(/C=C/c1ccc(CN2C(=O)c3cccnc3N(C3CC3)c3ccccc32)cc1)NO` [(E)-3-(4-((11-cyclopropyl-5-oxo-5H-benzo[b]pyrido[2,3-e][1,4]diazepin-6(11H)-yl)methyl)phenyl)-N-hydroxyacrylamide], the IC50 was < 0.05 µM.
On to `O=C(/C=C/c1ccc(CN2c3ccccc3C=Cc3ccccc32)cc1)NO` [(E)-3-(4-(((Z)-5H-dibenzo[b,f]azepin-5-yl)methyl)phenyl)-N-hydroxyacrylamide], for which the IC50 was in the range of 0.05 to 0.1 µM.
In the case of `O=C(/C=C/c1ccc2c(c1)C=Cc1ccccc1N2CC1CC1)NO` [(E)-3-((Z)-5-(cyclopropylmethyl)-5H-dibenzo[b,f]azepin-2-yl)-N-hydroxyacrylamide], the IC50 lay in the range of 0.1 to 1 µM.
The same measure, in the same setting: then `CN1C(=O)CN=C(c2ccccc2)c2ccc(/C=C/C(=O)NO)cc21` [(E)-N-hydroxy-3-((Z)-1-methyl-2-oxo-5-phenyl-2,3-dihydro-1H-benzo[e][1,4]diazepin-8-yl)acrylamide], with 0.1 to 1 µM; and `O=C(/C=C/c1ccc2c(c1)NC(=O)CN=C2c1ccccc1)NO` [(E)-N-hydroxy-3-((Z)-2-oxo-5-phenyl-2,3-dihydro-1H-benzo[e][1,4]diazepin-8-yl)acrylamide], with 0.05 to 0.1 µM; and `O=C(NO)c1cnc(N2CCC[C@H]2c2nc3ccccc3[nH]2)nc1` [(S)-2-(2-(1H-benzo[d]imidazol-2-yl)pyrrolidin-1-yl)-N-hydroxypyrimidine-5-carboxamide], with 0.1 to 1 µM.
The same measure, in the same setting: for `O=C(Cc1ccc(CN2c3ccccc3C=Cc3ccccc32)cc1)NO` [(Z)-2-(4-((5H-dibenzo[b,f]azepin-5-yl)methyl)phenyl)-N-hydroxyacetamide] the value was 0.1 to 1 µM; for `O=C(CN1c2ccccc2C=Cc2ccccc21)NO` [(Z)-2-(5H-dibenzo[b,f]azepin-5-yl)-N-hydroxyacetamide], 1 to 10 µM; for `O=C(NO)c1cccc(CN2c3ccccc3C=Cc3ccccc32)c1` [(Z)-3-((5H-dibenzo[b,f]azepin-5-yl)methyl)-N-hydroxybenzamide], 0.1 to 1 µM.
As to `O=C(CCCN1c2ccccc2C=Cc2ccccc21)NO` [(Z)-4-(5H-dibenzo[b,f]azepin-5-yl)-N-hydroxybutanamide], the IC50 was in the range of 1 to 10 µM.
Same read-out and setting: for `O=C1CN=C(c2ccc(C(=O)NO)cc2)c2cc(Br)sc2N1` [(Z)-4-(7-bromo-2-oxo-2,3-dihydro-1H-thieno[2,3-e][1,4]diazepin-5-yl)-N-hydroxybenzamide] the value was 0.1 to 1 µM.

The same test, now with this note: read-out: HDAC Inhibtion (IC50 μM) HDAC Enzyme.
Take `O=C(NO)c1cnc(N2CCN(C3=Nc4ccccc4Oc4ccc(Cl)cc43)CC2)nc1` [(E)-2-(4-(2-chlorodibenzo[b,f][1,4]oxazepin-11-yl)piperazin-1-yl)-N-hydroxypyrimidine-5-carboxamide]: the IC50 is < 0.05 µM.
On the same count and under the same terms, for `O=C(NO)c1ccc(CCNC2=Nc3ccccc3Oc3ccccc32)cc1` [(E)-4-(2-(dibenzo[b,f][1,4]oxazepin-11-ylamino)ethyl)-N-hydroxybenzamide] the value was 0.1 to 1 µM; for `O=C(NO)c1ccc(CNC2=Nc3ccccc3N(C3CC3)c3ccccc32)cc1` [(E)-4-((5-cyclopropyl-5H-dibenzo[b,e][1,4]diazepin-11-ylamino)methyl)-N-hydroxybenzamide], 0.1 to 1 µM; for `O=C(NO)c1ccc(CNC2=Nc3ccccc3Oc3ccccc32)cc1` [(E)-4-((dibenzo[b,f][1,4]oxazepin-11-ylamino)methyl)-N-hydroxybenzamide], < 0.05 µM.
`O=C(NO)c1ccc(C2=Nc3ccccc3Oc3ccccc32)c(F)c1` [(E)-4-(dibenzo[b,f][1,4]oxazepin-11-yl)-3-fluoro-N-hydroxybenzamide]: the IC50 is 1 to 10 µM.
In the case of `O=C(NO)c1ccc(C2=Nc3ccccc3Oc3ccccc32)o1` [(E)-5-(dibenzo[b,f][1,4]oxazepin-11-yl)-N-hydroxyfuran-2-carboxamide], the IC50 fell in the range of 1 to 10 µM.
As for `O=C(NO)c1ccc(C2=Nc3ccccc3Oc3ccccc32)s1` [(E)-5-(dibenzo[b,f][1,4]oxazepin-11-yl)-N-hydroxythiophene-2-carboxamide], the IC50 was < 0.05 µM.
On the same count and under the same terms, then `O=C(NO)c1ccc(C2=Nc3ccccc3Oc3ccccc32)nc1` [(E)-6-(dibenzo[b,f][1,4]oxazepin-11-yl)-N-hydroxynicotinamide], with 0.1 to 1 µM; and `O=C(NO)c1ccc(-c2ccc3c(c2)C(N2CCOCC2)=Nc2ccccc2O3)cc1` [(E)-N-hydroxy-4-(11-morpholinodibenzo[b,f][1,4]oxazepin-2-yl)benzamide], with < 0.05 µM; and `O=C(NO)c1cccc(C2=Nc3ccccc3Oc3ccccc32)c1` [(Z)-3-(dibenzo[b,f][1,4]oxazepin-11-yl)-N-hydroxybenzamide], with 0.1 to 1 µM.
`O=C(NO)c1ccc(C2=Nc3ccccc3Oc3cccc(F)c32)cc1` [(Z)-4-(1-fluorodibenzo[b,f][1,4]oxazepin-11-yl)-N-hydroxybenzamide]: the IC50 is < 0.05 µM.
The same measure, in the same setting: for `O=C(NO)c1ccc(C2=Nc3ccccc3Oc3ccc(Cl)cc32)cc1` [(Z)-4-(2-chlorodibenzo[b,f][1,4]oxazepin-11-yl)-N-hydroxybenzamide] the value was < 0.05 µM; for `COc1cc(F)cc2c1Oc1ccccc1N=C2c1ccc(C(=O)NO)cc1` [(Z)-4-(2-fluoro-4-methoxydibenzo[b,f][1,4]oxazepin-11-yl)-N-hydroxybenzamide], < 0.05 µM.
For the compound `O=C(NO)c1ccc(C2=Nc3ccccc3Oc3ccc(F)cc32)cc1` [(Z)-4-(2-fluorodibenzo[b,f][1,4]oxazepin-11-yl)-N-hydroxybenzamide], the IC50 was < 0.05 µM.
Still for that read-out and setting: for `O=C(NO)c1ccc(C2=Nc3ccccc3Oc3cc(F)ccc32)cc1` [(Z)-4-(3-fluorodibenzo[b,f][1,4]oxazepin-11-yl)-N-hydroxybenzamide] the value was 0.1 to 1 µM; for `O=C(NO)c1ccc(C2=Nc3ccccc3Oc3c(F)cccc32)cc1` [(Z)-4-(4-fluorodibenzo[b,f][1,4]oxazepin-11-yl)-N-hydroxybenzamide], 0.1 to 1 µM.
Consider `O=C(NO)c1ccc(C2=Nc3ccccc3N(C3CC3)c3ccc(F)cc32)cc1` [(Z)-4-(5-cyclopropyl-2-fluoro-5H-dibenzo[b,e][1,4]diazepin-11-yl)-N-hydroxybenzamide], for which the IC50 was in the range of 0.05 to 0.1 µM.
Same read-out and setting: for `CN(O)C(=O)c1ccc(C2=Nc3ccccc3N(C3CC3)c3ccccc32)cc1` [(Z)-4-(5-cyclopropyl-5H-dibenzo[b,e][1,4]diazepin-11-yl)-N-hydroxy-N-methylbenzamide] the value was 1 to 10 µM; for `O=C(NO)c1ccc(C2=Nc3ccccc3N(C3CC3)c3ccccc32)cc1` [(Z)-4-(5-cyclopropyl-5H-dibenzo[b,e][1,4]diazepin-11-yl)-N-hydroxybenzamide], 0.1 to 1 µM; for `CCN1c2ccccc2N=C(c2ccc(C(=O)NO)cc2)c2ccccc21` [(Z)-4-(5-ethyl-5H-dibenzo[b,e][1,4]diazepin-11-yl)-N-hydroxybenzamide], 0.05 to 0.1 µM.
On the same count and under the same terms, for `O=C(NO)c1ccc(C2=Nc3ccccc3Cn3cccc32)cc1` [(Z)-4-(5H-benzo[e]pyrrolo[1,2-a][1,4]diazepin-11-yl)-N-hydroxybenzamide] the value was < 0.05 µM.
Take `O=C(NO)c1ccc(C2=Nc3ccccc3Nc3ccccc32)cc1` [(Z)-4-(5H-dibenzo[b,e][1,4]diazepin-11-yl)-N-hydroxybenzamide]: the IC50 lay within 0.1 to 1 µM.
The same measure, in the same setting: for `O=C(NO)c1ccc(C2=Nc3cccc(F)c3Oc3ccccc32)cc1` [(Z)-4-(6-fluorodibenzo[b,f][1,4]oxazepin-11-yl)-N-hydroxybenzamide] the value was 0.05 to 0.1 µM; for `O=C(NO)c1ccc(C2=Nc3ccc(Cl)cc3Oc3ccccc32)cc1` [(Z)-4-(7-chlorodibenzo[b,f][1,4]oxazepin-11-yl)-N-hydroxybenzamide], 0.1 to 1 µM; for `N#Cc1ccc2c(c1)Oc1ccccc1C(c1ccc(C(=O)NO)cc1)=N2` [(Z)-4-(7-cyanodibenzo[b,f][1,4]oxazepin-11-yl)-N-hydroxybenzamide], < 0.05 µM.
Same read-out and setting: then `O=C(NO)c1ccc(C2=Nc3cc(Cl)ccc3Nc3ccccc32)cc1` [(Z)-4-(8-chloro-5H-dibenzo[b,e][1,4]diazepin-11-yl)-N-hydroxybenzamide], with 0.05 to 0.1 µM; and `O=C(NO)c1ccc(C2=Nc3cc(Cl)ccc3Oc3ccccc32)cc1` [(Z)-4-(8-chlorodibenzo[b,f][1,4]oxazepin-11-yl)-N-hydroxybenzamide], with 0.1 to 1 µM.
As for `N#Cc1ccc2c(c1)N=C(c1ccc(C(=O)NO)cc1)c1ccccc1O2` [(Z)-4-(8-cyanodibenzo[b,f][1,4]oxazepin-11-yl)-N-hydroxybenzamide], the IC50 lay within 0.05 to 0.1 µM.
Still for that read-out and setting: then `O=C(NO)c1ccc(C2=Nc3c(F)cccc3Oc3ccccc32)cc1` [(Z)-4-(9-fluorodibenzo[b,f][1,4]oxazepin-11-yl)-N-hydroxybenzamide], with 0.05 to 0.1 µM; and `O=C(NO)c1ccc(C2=Nc3ccccc3N(CC3CC3)c3ncccc32)cc1` [(Z)-4-(11-(cyclopropylmethyl)-11H-benzo[b]pyrido[2,3-e][1,4]diazepin-5-yl)-N-hydroxybenzamide], with 1 to 10 µM.
